The results in this text go back to US11926628B2 (Gilead Sciences, Inc., priority 2021, dated 2024).

Test [1] addresses human DGKα (Homo sapiens (Human), UniProt P23743). The experiment in a line: DGKα Biochemical Activity Assay (ADP-Glo). To be noted: recombinant DGKα 1 nM, 100 μM ATP, 18:1 DAG/POPS/octylglucoside micelles, 1 hour at 25° C.; geometric mean; read-out: HTBS DGKa 1X ATP KM IC50. In short, it runs like this: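 Recombinant DGKα (1 nM final) was preincubated with compound for 15 min, then reacted for 1 h at 25 °C with 100 μM ATP and octylglucoside micelles of 0.85 mM 18:1 DAG and 6.75 mM POPS in pH 7.2 MOPS with 5 mM MgCl2. ADP formed was read by ADP-Glo luminescence. IC50 came from four-parameter fits normalized to DMSO and 50 μM CU3, and values were geometric means.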

Test [2] has as its system Jurkat NFκB-luciferase cells. The test can be described thus: Jurkat NFκB-Luciferase Assay. It is filed as cell-based. Conditions: Homo sapiens; Jurkat NFκB-luciferase cells activated with anti-CD3 antibody (OKT3), 2.5 hrs at 37° C.; geometric mean; read-out: DGK NFKb Luciferase EC50. In short, it runs like this:
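Jurkat NFκB-luciferase reporter cells stimulated on plate-bound anti-CD3 (5 ug/ml coating) with compound, 2.5 hrs at 37° C then 30 min at 25° C; luminescence read with One-Glo Ex. Normalized to DMSO (basal) and 1 micromolar compound (maximum) controls; EC50 from four-parameter fit, geometric mean across experiments.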

human DGKα, sequence (P23743 whole entry): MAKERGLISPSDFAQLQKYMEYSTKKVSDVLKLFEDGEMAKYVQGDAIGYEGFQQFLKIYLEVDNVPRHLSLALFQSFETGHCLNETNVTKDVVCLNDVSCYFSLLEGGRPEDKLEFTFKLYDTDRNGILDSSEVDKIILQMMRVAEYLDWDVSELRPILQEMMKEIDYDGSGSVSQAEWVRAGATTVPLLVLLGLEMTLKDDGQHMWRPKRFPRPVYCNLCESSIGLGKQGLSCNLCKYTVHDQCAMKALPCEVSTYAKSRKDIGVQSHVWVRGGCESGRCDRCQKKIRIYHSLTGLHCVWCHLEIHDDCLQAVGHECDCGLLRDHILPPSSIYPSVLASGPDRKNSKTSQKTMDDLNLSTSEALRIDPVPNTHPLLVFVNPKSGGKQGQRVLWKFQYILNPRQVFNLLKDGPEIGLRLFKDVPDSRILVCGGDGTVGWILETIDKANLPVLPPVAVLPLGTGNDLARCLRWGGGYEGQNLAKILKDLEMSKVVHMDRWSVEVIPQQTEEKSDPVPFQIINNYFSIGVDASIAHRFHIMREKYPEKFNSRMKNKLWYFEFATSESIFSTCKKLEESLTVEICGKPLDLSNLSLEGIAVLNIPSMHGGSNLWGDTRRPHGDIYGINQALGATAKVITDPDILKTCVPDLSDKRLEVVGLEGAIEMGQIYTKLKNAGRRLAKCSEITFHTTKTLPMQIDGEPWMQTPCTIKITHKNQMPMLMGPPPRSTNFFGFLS

Regarding `Cc1nnc2nc(N(CC(F)F)c3cc(F)cc(C#CC(C)(C)C(F)(F)F)c3)c3cc(F)cnc3n12` [Example 103, N-(2,2-difluoroethyl)-3-fluoro-N-(3-fluoro-5-(4,4,4-trifluoro-3,3-dimethylbut-1-yn-1-yl)phenyl)-9-methylpyrido[3,2-e][1,2,4]triazolo[4,3-a]pyrimidin-5-amine], the half-inhibitory concentration (IC50) in test [1] stood at 9.34 nM. Also, the 50% effective concentration (EC50) in test [2] stood at 1.64 nM.

In the case of `Cc1nnc2nc(N(CC(F)F)c3cc(F)cc(C#CC4(C)CC4)c3)c3cc(F)cnc3n12` [Example 104, N-(2,2-difluoroethyl)-3-fluoro-N-(3-fluoro-5-((1-methylcyclopropyl)ethynyl)phenyl)-9-methylpyrido[3,2-e][1,2,4]triazolo[4,3-a]pyrimidin-5-amine], the IC50 in test [1] worked out at 14.5 nM. Besides, the concentration giving a half-maximal response (EC50) in test [2] stood at 3.53 nM.

Regarding `Cc1nnc2nc(N(CC(F)F)c3cc(F)cc(C#CC4(C(F)F)CC4)c3)c3cc(F)cnc3n12` [Example 105, N-(2,2-difluoroethyl)-N-(3-((1-(difluoromethyl)cyclopropyl)ethynyl)-5-fluorophenyl)-3-fluoro-9-methylpyrido[3,2-e][1,2,4]triazolo[4,3-a]pyrimidin-5-amine], the IC50 in test [1] is 13.3 nM. Also, the half-maximal effective concentration (EC50) in test [2] was 5.57 nM.

For the compound `Cc1nnc2nc(N(CC(F)F)c3cc(F)cc(C#CC4(C(F)(F)F)CC4)c3)c3cc(F)cnc3n12` [Example 106, N-(2,2-difluoroethyl)-3-fluoro-N-(3-fluoro-5-((1-(trifluoromethyl)cyclopropyl)ethynyl)phenyl)-9-methylpyrido[3,2-e][1,2,4]triazolo[4,3-a]pyrimidin-5-amine], the half-inhibitory concentration (IC50) in test [1] turned out to be 6.42 nM. In test [2], the EC50 was 2.25 nM.

Take `Cc1nnc2nc(N3CCCc4c(C#CC5(C)CC5)cccc43)c3cc(F)cnc3n12` [Example 107, 3-fluoro-9-methyl-5-(5-((1-methylcyclopropyl)ethynyl)-3,4-dihydroquinolin-1(2H)-yl)pyrido[3,2-e][1,2,4]triazolo[4,3-a]pyrimidine]: the IC50 in test [1] was 11.9 nM. In addition, the EC50 in test [2] was determined as 1.85 nM.

Turning to `Fc1cnc2c(c1)c(N1CCCc3c(C#CC4(C(F)F)CC4)cccc31)nc1nncn12` [Example 108, 5-(5-((1-(difluoromethyl)cyclopropyl)ethynyl)-3,4-dihydroquinolin-1(2H)-yl)-3-fluoropyrido[3,2-e][1,2,4]triazolo[4,3-a]pyrimidine], the IC50 in test [1] was 3.43 nM. For the same compound, the EC50 in test [2] was 3.08 nM.

For `CC1(C#Cc2cccc3c2CCCN3c2nc3nncn3c3ncc(F)cc23)CC1` [Example 109, 3-fluoro-5-(5-((1-methylcyclopropyl)ethynyl)-3,4-dihydroquinolin-1(2H)-yl)pyrido[3,2-e][1,2,4]triazolo[4,3-a]pyrimidine], the IC50 in test [1] is 5.62 nM. In addition, in test [2], the concentration giving a half-maximal response (EC50) was 1.75 nM.

As to `COc1ccc2c(N(C)c3cccc(C#CC(C)(C)O)c3)nc3nncn3c2n1` [Example 114, 4-(3-((2-methoxypyrido[3,2-e][1,2,4]triazolo[4,3-a]pyrimidin-5-yl)(methyl)amino)phenyl)-2-methylbut-3-yn-2-ol], the half-inhibitory concentration (IC50) in test [1] amounted to 75.4 nM. In addition, the half-maximal effective concentration (EC50) in test [2] came to 27 nM.

Turning to `COc1ccc2c(N(C)c3cccc(-c4ccc(S(F)(F)(F)(F)F)cc4)c3)nc3nncn3c2n1` [Example 115, 2-methoxy-N-methyl-N-(4′-(pentafluoro-16-sulfaneyl)-[1,1′-biphenyl]-3-yl)pyrido[3,2-e][1,2,4]triazolo[4,3-a]pyrimidin-5-amine], the 50% inhibitory concentration (IC50) in test [1] amounted to 448 nM. For the same compound, the half-maximal effective concentration (EC50) in test [2] was 1.74 nM.

Take `CNc1ccc2c(N(C)c3cccc(-c4ccc(S(F)(F)(F)(F)F)cc4)c3)nc3nncn3c2n1` [Example 116, N2,N5-dimethyl-N5-(4′-(pentafluoro-16-sulfaneyl)-[1,1′-biphenyl]-3-yl)pyrido[3,2-e][1,2,4]triazolo[4,3-a]pyrimidine-2,5-diamine]: the IC50 in test [1] amounted to 439 nM. For the same compound, the concentration giving a half-maximal response (EC50) in test [2] is 5.67 nM.

On to `CN(c1cccc(-c2ccc(S(F)(F)(F)(F)F)cc2)c1)c1nc2nncn2c2nc(N)ccc12` [Example 117, N5-methyl-N5-(4′-(pentafluoro-16-sulfaneyl)-[1,1′-biphenyl]-3-yl)pyrido[3,2-e][1,2,4]triazolo[4,3-a]pyrimidine-2,5-diamine], for which the IC50 in test [1] stood at 30.4 nM. Besides, the EC50 in test [2] is 4.88 nM.

For the compound `CNc1ccc2c(N(C)c3cccc(C#CC(C)(C)C)c3)nc3nncn3c2n1` [Example 118, N5-(3-(3,3-dimethylbut-1-yn-1-yl)phenyl)-N2,N5-dimethylpyrido[3,2-e][1,2,4]triazolo[4,3-a]pyrimidine-2,5-diamine], in test [1], the IC50 turned out to be 105 nM. For the same compound, the EC50 in test [2] was 5.79 nM.

On to `CNc1ccc2c(N(C)c3cccc(-c4ccc(OC)nc4)c3)nc3nncn3c2n1` [Example 119, N5-(3-(6-methoxypyridin-3-yl)phenyl)-N2,N5-dimethylpyrido[3,2-e][1,2,4]triazolo[4,3-a]pyrimidine-2,5-diamine], for which the half-maximal inhibitory concentration (IC50) in test [1] was found to be 392 nM. Further, the EC50 in test [2] stood at 52.2 nM.

With `CNc1ccc2c(N(C)c3cccc(-c4ccc(C5CC5)cc4)c3)nc3nncn3c2n1` [Example 120, N5-(4′-cyclopropyl-[1,1′-biphenyl]-3-yl)-N2,N5-dimethylpyrido[3,2-e][1,2,4]triazolo[4,3-a]pyrimidine-2,5-diamine], in test [1], the half-maximal inhibitory concentration (IC50) was 19.3 nM. Moreover, in test [2], the EC50 was determined as 0.664 nM.

For `CN(c1cccc(C#CC2(C(F)(F)F)CC2)c1)c1nc2nncn2c2nc(N)ccc12` [Example 121, N5-methyl-N5-(3-((1-(trifluoromethyl)cyclopropyl)ethynyl)phenyl)pyrido[3,2-e][1,2,4]triazolo[4,3-a]pyrimidine-2,5-diamine], in test [1], the IC50 came out at 46.2 nM. Further, the EC50 in test [2] stood at 6.93 nM.

As for `Cc1ccc2c(N(C)c3cccc(C#CC(C)(C)C)c3)nc3nncn3c2n1` [Example 122, N-(3-(3,3-dimethylbut-1-yn-1-yl)phenyl)-N,2-dimethylpyrido[3,2-e][1,2,4]triazolo[4,3-a]pyrimidin-5-amine], the IC50 in test [1] turned out to be 42.7 nM. The half-maximal effective concentration (EC50) in test [2] was 4.15 nM.

Take `Cc1ccc2c(N(C)c3cccc(-c4ccc(C5CC5)cc4)c3)nc3nncn3c2n1` [Example 123, N-(4′-cyclopropyl-[1,1′-biphenyl]-3-yl)-N,2-dimethylpyrido[3,2-e][1,2,4]triazolo[4,3-a]pyrimidin-5-amine]: in test [1], the IC50 came to 12.7 nM. In addition, in test [2], the 50% effective concentration (EC50) came out at 2.05 nM.

Take `Cc1ccc2c(N(C)c3cccc(-c4ccc(C(F)F)cc4)c3)nc3nncn3c2n1` [Example 124, N-(4′-(difluoromethyl)-[1,1′-biphenyl]-3-yl)-N,2-dimethylpyrido[3,2-e][1,2,4]triazolo[4,3-a]pyrimidin-5-amine]: in test [1], the IC50 was 12.3 nM. In addition, the EC50 in test [2] was 7.45 nM.

For the compound `Cc1ccc2c(N(C)c3cccc(Cl)c3)nc3nncn3c2n1` [Example 125, N-(3-chlorophenyl)-N,2-dimethylpyrido[3,2-e][1,2,4]triazolo[4,3-a]pyrimidin-5-amine], the 50% inhibitory concentration (IC50) in test [1] turned out to be 734 nM. The EC50 in test [2] was found to be 169 nM.

For `CN(c1cccc(C#CC(C)(C)C)c1)c1nc2nncn2c2nc(N)ccc12` [Example 126, N5-(3-(3,3-dimethylbut-1-yn-1-yl)phenyl)-N5-methylpyrido[3,2-e][1,2,4]triazolo[4,3-a]pyrimidine-2,5-diamine], the 50% inhibitory concentration (IC50) in test [1] is 21.4 nM. Besides, the half-maximal effective concentration (EC50) in test [2] was 3.15 nM.
